The target of data set [1] is T1, PARP1 (Homo sapiens, UniProt P09874).
T1 construct: purchased Abcam
The data set is described as follows: Microscale thermophoresis (MST) assay. It is filed as binding. The conditions noted are these: labeled protein 50 nM; for Kd: read-out: PARP1 (K d). As to the method: (§1) All samples were diluted in 1 × PBST. […] Affinity Analysis software.

Data set [2] addresses T2, NRP1 (Homo sapiens, UniProt O14786).
T2 construct: purchased Abcam
T2 sequence (O14786 22-644 isoform O14786-2 limits assumed): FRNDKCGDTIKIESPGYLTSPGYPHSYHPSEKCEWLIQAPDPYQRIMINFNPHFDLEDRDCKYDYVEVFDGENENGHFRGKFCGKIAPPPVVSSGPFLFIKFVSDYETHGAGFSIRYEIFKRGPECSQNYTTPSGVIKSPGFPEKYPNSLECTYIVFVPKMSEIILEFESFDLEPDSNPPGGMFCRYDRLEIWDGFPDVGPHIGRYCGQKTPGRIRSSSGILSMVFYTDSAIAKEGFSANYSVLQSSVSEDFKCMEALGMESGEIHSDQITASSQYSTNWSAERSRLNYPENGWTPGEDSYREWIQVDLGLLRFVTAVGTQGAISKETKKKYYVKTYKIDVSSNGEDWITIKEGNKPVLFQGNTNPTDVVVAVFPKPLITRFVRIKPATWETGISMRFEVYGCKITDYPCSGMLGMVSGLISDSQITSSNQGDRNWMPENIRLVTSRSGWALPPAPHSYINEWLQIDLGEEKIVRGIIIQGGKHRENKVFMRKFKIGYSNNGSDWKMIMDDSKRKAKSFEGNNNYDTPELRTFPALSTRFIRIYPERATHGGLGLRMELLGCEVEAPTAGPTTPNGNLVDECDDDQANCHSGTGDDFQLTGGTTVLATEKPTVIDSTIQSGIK
As to the kind of experiment: Microscale thermophoresis (MST) assay. It is filed as binding. The conditions noted are these: labeled protein 50 nM; for Kd: read-out: NRP1 (K d). As to the method: as §1

Data set [3] addresses T3, NRP1 (Homo sapiens, UniProt O14786).
T3 construct: expressed in transfected cells; host or cells: HUVEC, adenovirus NRP1
As to the kind of experiment: In vitro NRP1 inhibition assay (125I-VEGF-A binding displacement, NRP1-transfected HUVEC cells). The conditions noted are these: 125I-VEGF-A165 binding competition, 2 h, 4°C. As to the method:
The method was performed as described previously ([Jarvis et al., 2010]). Radiolabeled binding displacement experiments were performed as described previously ([Jia et al., 2006]). Confluent adenovirus NRP1-transfected HUVEC cells in 96-well plates were washed twice with PBS. At 4°C various concentrations of compounds diluted in binding medium (Dulbecco’s modified Eagle’s medium, 25 mM HEPES, pH 7.3, containing 0.1% BSA) were added, followed by addition of the indicated concentration of ^125I-VEGF-A (1,200–1800 Ci/mmol, GE Healthcare, United Kingdom). After 2 h of incubation at 4°C, the medium was aspirated, and washed four times with cold phosphate-buffered saline. The cells were lysed with 0.25 M NaOH, 0.5% SDS solution, and the bound radioactivity of the lysates was measured. IC50 values were calculated from the competition curves of the compounds in the ^125I-VEGF-A165 binding assay using GraphPad Prism 9 software. Using log(inhibitors) vs response-Variable slope equation in the GraphPad Prism 9 to fit the curves. The equation was as follows: (Top and Bottom are the responses, respectively, at the top and bottom of the curve, Y is the inhibitory response at a given compound concentration X, and the Hillslope describes the steepness of the curve.) Y=Bottom+Top−Bottom/1+10^logIC50−xHillslope
T3 sequence (O14786 22-923): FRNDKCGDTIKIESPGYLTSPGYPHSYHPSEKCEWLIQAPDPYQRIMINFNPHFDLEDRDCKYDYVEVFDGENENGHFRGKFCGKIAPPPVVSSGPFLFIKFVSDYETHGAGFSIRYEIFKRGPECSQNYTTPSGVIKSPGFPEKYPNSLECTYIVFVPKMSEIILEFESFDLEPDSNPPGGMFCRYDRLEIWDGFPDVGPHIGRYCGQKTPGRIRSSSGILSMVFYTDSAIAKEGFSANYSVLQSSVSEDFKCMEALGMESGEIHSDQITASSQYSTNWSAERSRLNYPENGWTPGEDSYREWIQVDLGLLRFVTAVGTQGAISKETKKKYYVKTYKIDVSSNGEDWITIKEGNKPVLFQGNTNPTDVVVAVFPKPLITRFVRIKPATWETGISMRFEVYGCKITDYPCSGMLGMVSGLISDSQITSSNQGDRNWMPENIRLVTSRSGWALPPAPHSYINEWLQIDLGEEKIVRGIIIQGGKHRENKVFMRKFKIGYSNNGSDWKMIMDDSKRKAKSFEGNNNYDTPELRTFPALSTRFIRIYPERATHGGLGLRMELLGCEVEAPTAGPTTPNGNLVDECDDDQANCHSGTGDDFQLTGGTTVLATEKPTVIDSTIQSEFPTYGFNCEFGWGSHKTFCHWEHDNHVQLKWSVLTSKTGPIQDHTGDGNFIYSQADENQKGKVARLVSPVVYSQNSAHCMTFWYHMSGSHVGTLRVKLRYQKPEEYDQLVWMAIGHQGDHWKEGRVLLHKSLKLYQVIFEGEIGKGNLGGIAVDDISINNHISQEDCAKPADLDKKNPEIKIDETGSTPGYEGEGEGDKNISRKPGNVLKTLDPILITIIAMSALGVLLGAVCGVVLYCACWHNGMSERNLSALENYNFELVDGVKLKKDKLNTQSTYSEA

The target of data set [4] is T1, PARP1. The data set is described as follows: In vitro PARP1 inhibition assay (chemiluminescence). It is filed as biochemical. The conditions noted are these: PARP1 enzyme 0.6 units/well. As to the method:
In each well, 50 μL of 1 × PARP1 buffer was added and incubated for 30 min at room temperature. The 1 × PARP1 buffer was removed from the wells, and then 25 μL of 1 × PARP1 cocktail was added to each well along with varying doses of compounds and PARP1 enzyme (0.6 units/well). Incubated and washed twice with PBS and 0.1% Triton X-100. Then added 50 μL Strep-HRP and washed twice. Equal volumes (100 μL) of PeroxyGlow A and B were added to each well and immediately take chemiluminescent readings. Data were analyzed by GraphPad Prism 9 software based on chemiluminescence readings of chemiluminescent substrates of Strep-HRP in each well. The IC50 value was were calculated by nonlinear curve fitting in GraphPad Prism 9.

Data set [5] deals with MDA-MB-231 xenograft tumor. As to the kind of experiment: In vivo antitumor assay. More on the design: species or system BALB/c nude mice. The conditions noted are these: 5 mg/kg intraperitoneally every 3 days, n = 6. As to the method: Twenty-four female BALB/c nude mice (body weight 16–20 g) at 4–6 weeks old were purchased from Changzhou Cavens Experimental Animal Limited Company (Changzhou, China). Mice were adaptively housed for 1 week in a specific pathogen-free (SPF) environment with a temperature of 25°C ± 2°C, a 12-hour light/dark cycle, and free access to food and water. MDA-MB-231 breast cancer cells (200 μL, 1×10^7 cells) were suspended in PBS to formulate cell suspension, and 0.1 mL of cells were injected into the axilla of the left forelimb of mice by subcutaneous injection. […] Equal concentrations of drug-free PBS buffer were used for the vehicle group. Each group was administered every 3 days and the body weight and tumor size of the mice were recorded. Mice were executed when the tumor volume approached 2000 mm^3. Tumor volumes of all mice were measured using vernier calipers. The mice were placed belly up and the longest diameter of the tumor was measured with the inner bayonet of a vernier caliper, and the shortest transverse diameter perpendicular to the diameter was measured with the inner bayonet of a vernier caliper and recorded. Tumor volume was estimated according to the following formula: (c × c × d)/2 (c, the smallest diameter; d, the largest diameter). All animal experiments were performed and approved by the Ethics Committee of China Pharmaceutical University.

For data set [6], the system named is MDA-MB-231 cells. As to the kind of experiment: In vitro antiproliferation assay (MTT). It is filed as cell-based. The note with it: Homo sapiens. As to the method:
Cell viability was measured by MTT assays. […] Afterward, the medium was removed. MTT (5 mg/mL) was dissolved in phosphate-buffered saline (PBS) and filter-sterilized, and then, 20 μL of the prepared MTT solution was added to each well, and the cells were incubated for another 4 h until a purple precipitate was visible. The supernatant was removed by centrifugation, and DMSO (150 μL/well) was added to dissolve the insoluble crystals. The absorbance was determined using an enzyme-linked immunosorbent assay reader at a test wavelength of 570 nm. The assays were performed three times in a parallel manner. The non-linear regression was used to plot a Dose-Response-Inhibition to determine the value of the IC50. […] The data were analyzed using GraphPad Prism 9 software.

Where [7] appears, read: 168 h, MDA-MB-231, concentration needed to reduce cell growth by 50% following 7 days cell treatment, read-out: IC50.

Six compounds from publication PMC11637875, “Discovery of novel PARP1/NRP1 dual-targeting inhibitors with strong antitumor potency” (Frontiers in Pharmacology, 2024) can be followed below.

Read-outs that look alike come from different tables or passages of the source.

T1 sequence (P09874 whole entry): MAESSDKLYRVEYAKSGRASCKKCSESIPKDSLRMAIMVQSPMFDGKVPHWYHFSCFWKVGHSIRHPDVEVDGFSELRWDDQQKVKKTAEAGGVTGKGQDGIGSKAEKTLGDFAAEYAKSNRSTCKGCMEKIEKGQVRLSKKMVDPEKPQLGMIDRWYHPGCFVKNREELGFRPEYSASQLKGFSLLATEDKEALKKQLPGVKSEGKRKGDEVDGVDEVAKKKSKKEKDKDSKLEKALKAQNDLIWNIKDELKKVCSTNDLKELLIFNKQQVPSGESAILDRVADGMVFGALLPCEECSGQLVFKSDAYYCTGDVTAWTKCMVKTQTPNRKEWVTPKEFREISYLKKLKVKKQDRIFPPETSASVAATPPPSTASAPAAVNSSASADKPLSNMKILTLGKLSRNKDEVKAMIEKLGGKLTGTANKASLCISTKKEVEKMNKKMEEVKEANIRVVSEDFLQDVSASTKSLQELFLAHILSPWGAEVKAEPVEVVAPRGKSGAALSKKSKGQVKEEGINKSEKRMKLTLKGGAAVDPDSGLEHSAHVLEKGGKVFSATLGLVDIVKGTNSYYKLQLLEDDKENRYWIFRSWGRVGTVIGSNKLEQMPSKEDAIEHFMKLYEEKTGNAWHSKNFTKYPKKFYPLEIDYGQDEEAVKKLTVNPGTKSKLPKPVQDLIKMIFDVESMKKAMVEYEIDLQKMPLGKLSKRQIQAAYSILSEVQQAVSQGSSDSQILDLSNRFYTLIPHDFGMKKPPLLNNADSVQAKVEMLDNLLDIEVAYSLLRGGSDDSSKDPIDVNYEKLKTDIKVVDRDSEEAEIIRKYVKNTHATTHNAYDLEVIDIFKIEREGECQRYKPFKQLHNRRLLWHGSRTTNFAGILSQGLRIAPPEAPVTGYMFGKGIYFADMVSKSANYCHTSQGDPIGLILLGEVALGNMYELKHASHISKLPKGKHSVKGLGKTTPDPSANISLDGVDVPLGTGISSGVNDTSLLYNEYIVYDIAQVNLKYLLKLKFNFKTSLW

One may read the IC50 as the concentration needed to halve the response being measured. Take `NC(N)=NCCC[C@H](NC(=O)c1sccc1NS(=O)(=O)c1cccc2nsnc12)C(=O)O` [EG00229]: the “PARP1 (K d, nM)” value in data set [1] is “no binding”. In data set [2], the Kd came to 0.519 µM. For the same compound, the values for the IC50 in data set [3] and in data set [6] (setting [7]) were 0.64 ± 0.0347 µM and 62.5 µM, respectively. For the same compound, the “PARP1 (IC50, nM)” value in data set [4] was “No inhibition”. Besides, the “body weight (g) in mice, mean” value in data set [5] (day 0) is listed as 18.38 g; in data set [5] (day 3) it was 18.51 g; in data set [5] (day 6), 18.84 g; in data set [5] (day 9) it was 19.19 g; in data set [5] (day 12) it was 19.52 g. Also, the “tumor volume (mm^3), mean” value in data set [5] (day 0) was 101 mm^3; in data set [5] (day 3), 275 mm^3; in data set [5] (day 6) it was 502 mm^3; in data set [5] (day 9) it was 976 mm^3; in data set [5] (day 12) it was 1352 mm^3.
With `O=C(c1cc(Cc2n[nH]c(=O)c3ccccc23)ccc1F)N1CCN(C(=O)C2CC2)CC1` [Olaparib, olaparib], in data set [2], the “NRP1 (K d, nM)” value is “no binding”. Besides, in data set [3], the “NRP1 (IC50, nM)” value is reported as “No inhibition”. The “body weight (g) in mice, mean” value in data set [5] (day 0) amounted to 18.29 g; in data set [5] (day 3), 18.55 g; in data set [5] (day 6) it was 19.12 g; in data set [5] (day 9) it was 19.37 g; in data set [5] (day 12), 19.59 g. Further, the “tumor volume (mm^3), mean” value in data set [5] (day 0) was 103 mm^3; in data set [5] (day 3), 245 mm^3; in data set [5] (day 6), 329 mm^3; in data set [5] (day 9) it was 513 mm^3; in data set [5] (day 12), 733 mm^3. In data set [6] (MDA-MB-231, 168 h), this compound showed an IC50 of 0.96 µM.
As to `NC(N)=NCCC[C@H](NCNCCNC(=O)c1cc(Cc2n[nH]c(=O)c3ccccc23)ccc1F)C(=O)O` [PPNR-1], the Kd amounted to 0.0751 µM in data set [1] and 0.0915 µM in data set [2]. In addition, the IC50 in data set [3] worked out at 0.0941 ± 0.00424 µM; in data set [4], 0.0703 ± 0.00313 µM; in data set [6] (setting [7]), 0.89 µM.
For `NC(N)=NCCC[C@H](NCN1CCCN(C(=O)c2cc(Cc3n[nH]c(=O)c4ccccc34)ccc2F)C1)C(=O)O` [PPNR-2] the same measures were 0.0284 µM, 0.031 µM, 0.0312 ± 0.00395 µM, 0.0293 ± 0.00257 µM and 0.56 µM.
The like results for `NC(N)=NCCC[C@H](NC/C=C/CNC(=O)c1cc(Cc2n[nH]c(=O)c3ccccc23)ccc1F)C(=O)O` [PPNR-3] were, in that order, 0.0611 µM, 0.0713 µM, 0.0729 ± 0.00341 µM, 0.0633 ± 0.00402 µM and 0.83 µM.
`CN(CCNC(=O)c1cc(Cc2n[nH]c(=O)c3ccccc23)ccc1F)CN[C@@H](CCCN=C(N)N)C(=O)O` [PPNR-5]: the Kd in data set [1] is 0.04 µM; in data set [2], 0.0553 µM. Moreover, the concentration for half-maximal inhibition (IC50) in data set [3] stood at 0.0571 ± 0.00327 µM; in data set [4], 0.0414 ± 0.00286 µM; in data set [6] (setting [7]), 0.72 µM.
